The source of these data is ChEMBL document CHEMBL3991601, “The target landscape of clinical kinase drugs” (Science, 2017).

Assay [1] addresses Casein kinase I isoform gamma-1 (Homo sapiens, UniProt Q9HCP0).
A further assay deals with Deoxycytidine kinase (Homo sapiens, UniProt P27707).
The target in assay [2] is Cyclin-dependent kinase 1 (Homo sapiens, UniProt P06493).
Assay [3] addresses T1, Serine/threonine-protein kinase TBK1 (Homo sapiens, UniProt Q9UHD2).
T1 sequence (Q9UHD2 whole entry): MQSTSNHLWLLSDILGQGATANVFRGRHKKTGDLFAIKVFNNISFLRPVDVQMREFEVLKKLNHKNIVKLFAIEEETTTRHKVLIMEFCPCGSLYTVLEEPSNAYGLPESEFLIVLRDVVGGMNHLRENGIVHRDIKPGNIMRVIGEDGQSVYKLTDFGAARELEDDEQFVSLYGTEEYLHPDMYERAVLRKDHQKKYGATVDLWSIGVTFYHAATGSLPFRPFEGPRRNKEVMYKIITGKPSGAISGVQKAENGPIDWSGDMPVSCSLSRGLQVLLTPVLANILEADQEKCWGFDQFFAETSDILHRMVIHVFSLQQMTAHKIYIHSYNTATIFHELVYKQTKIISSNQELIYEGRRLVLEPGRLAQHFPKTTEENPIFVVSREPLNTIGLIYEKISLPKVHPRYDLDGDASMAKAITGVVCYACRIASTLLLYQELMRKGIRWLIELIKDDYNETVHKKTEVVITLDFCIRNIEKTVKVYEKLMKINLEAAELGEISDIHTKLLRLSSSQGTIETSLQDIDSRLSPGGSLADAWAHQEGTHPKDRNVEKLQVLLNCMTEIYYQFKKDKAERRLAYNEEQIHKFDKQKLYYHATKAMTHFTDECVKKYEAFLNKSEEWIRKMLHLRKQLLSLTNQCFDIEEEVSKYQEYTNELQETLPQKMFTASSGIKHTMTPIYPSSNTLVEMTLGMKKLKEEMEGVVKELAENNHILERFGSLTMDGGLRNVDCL

The target in assay [4] is Mitogen-activated protein kinase kinase kinase kinase 4 (Homo sapiens, UniProt O95819).
Chain of Mitogen-activated protein kinase kinase kinase kinase 4 (O95819 whole entry): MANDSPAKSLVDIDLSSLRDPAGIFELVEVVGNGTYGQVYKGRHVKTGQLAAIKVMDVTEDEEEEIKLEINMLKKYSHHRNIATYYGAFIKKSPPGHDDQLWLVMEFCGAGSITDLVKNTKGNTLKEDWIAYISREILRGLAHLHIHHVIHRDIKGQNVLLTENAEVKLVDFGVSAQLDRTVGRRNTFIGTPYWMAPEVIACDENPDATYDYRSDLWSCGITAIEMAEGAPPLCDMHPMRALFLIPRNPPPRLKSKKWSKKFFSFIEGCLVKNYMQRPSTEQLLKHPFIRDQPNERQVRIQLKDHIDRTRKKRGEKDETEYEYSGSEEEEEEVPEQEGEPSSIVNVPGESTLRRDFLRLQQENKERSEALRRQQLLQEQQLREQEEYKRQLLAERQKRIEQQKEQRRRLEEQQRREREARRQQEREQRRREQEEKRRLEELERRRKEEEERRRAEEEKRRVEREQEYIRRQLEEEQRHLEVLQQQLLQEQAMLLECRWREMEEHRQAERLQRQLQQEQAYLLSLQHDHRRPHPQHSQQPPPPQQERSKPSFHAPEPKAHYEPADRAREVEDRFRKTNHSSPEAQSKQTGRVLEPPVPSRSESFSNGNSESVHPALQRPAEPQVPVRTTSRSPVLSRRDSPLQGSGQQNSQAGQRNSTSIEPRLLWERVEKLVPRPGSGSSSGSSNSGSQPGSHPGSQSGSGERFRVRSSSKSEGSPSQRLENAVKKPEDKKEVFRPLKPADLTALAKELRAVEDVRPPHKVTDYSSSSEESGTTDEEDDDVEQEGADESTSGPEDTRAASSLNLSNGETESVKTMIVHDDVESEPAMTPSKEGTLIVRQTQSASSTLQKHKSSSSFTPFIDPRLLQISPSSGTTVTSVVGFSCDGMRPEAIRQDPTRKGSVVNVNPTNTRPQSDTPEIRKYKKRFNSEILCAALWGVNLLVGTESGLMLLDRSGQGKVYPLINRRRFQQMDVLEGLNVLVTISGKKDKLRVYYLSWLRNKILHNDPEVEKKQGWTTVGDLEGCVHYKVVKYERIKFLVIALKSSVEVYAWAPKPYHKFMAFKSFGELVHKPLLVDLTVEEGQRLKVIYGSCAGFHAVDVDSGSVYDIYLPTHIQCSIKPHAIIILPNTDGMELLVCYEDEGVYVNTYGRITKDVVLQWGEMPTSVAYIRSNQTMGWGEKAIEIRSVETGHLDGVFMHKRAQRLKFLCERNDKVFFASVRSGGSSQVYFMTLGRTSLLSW
Assay [5] addresses T2, Mitogen-activated protein kinase kinase kinase 2 (Homo sapiens, UniProt Q9Y2U5).
T2 sequence (Q9Y2U5 whole entry): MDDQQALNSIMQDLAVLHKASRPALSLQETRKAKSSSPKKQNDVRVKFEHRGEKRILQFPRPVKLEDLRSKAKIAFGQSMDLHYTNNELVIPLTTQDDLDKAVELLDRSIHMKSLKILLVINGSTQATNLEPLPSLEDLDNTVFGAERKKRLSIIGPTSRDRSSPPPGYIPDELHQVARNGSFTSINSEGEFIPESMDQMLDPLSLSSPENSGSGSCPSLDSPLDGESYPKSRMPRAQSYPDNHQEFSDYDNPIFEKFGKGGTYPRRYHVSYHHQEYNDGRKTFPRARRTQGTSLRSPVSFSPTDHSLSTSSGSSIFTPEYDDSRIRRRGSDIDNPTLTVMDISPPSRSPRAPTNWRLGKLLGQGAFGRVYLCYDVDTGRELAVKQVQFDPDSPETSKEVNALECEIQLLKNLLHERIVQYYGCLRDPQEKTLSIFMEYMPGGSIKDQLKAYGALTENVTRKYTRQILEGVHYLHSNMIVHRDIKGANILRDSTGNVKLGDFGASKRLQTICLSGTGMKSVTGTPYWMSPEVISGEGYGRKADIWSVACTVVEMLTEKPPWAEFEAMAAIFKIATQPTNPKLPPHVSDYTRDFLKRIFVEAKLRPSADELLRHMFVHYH

Assay [6] addresses T3, Serine/threonine-protein kinase Nek3 (Homo sapiens, UniProt P51956).
T3 sequence (P51956 whole entry): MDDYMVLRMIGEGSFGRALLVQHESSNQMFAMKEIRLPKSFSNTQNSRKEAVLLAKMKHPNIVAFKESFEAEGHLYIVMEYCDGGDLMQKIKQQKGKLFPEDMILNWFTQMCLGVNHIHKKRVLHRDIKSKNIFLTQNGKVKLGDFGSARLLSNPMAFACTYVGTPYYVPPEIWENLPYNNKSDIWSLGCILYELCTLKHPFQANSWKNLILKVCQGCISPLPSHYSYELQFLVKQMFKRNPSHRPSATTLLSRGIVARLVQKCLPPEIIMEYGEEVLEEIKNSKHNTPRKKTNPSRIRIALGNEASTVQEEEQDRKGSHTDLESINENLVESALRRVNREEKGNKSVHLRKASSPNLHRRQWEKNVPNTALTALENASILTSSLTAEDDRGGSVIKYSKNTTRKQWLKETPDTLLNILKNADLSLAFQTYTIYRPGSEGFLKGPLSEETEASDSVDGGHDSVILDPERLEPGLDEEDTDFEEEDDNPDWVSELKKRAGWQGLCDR

Assay [7] concerns the target T4, Serine/threonine-protein kinase A-Raf (Homo sapiens, UniProt P10398).
T4 sequence (P10398 whole entry): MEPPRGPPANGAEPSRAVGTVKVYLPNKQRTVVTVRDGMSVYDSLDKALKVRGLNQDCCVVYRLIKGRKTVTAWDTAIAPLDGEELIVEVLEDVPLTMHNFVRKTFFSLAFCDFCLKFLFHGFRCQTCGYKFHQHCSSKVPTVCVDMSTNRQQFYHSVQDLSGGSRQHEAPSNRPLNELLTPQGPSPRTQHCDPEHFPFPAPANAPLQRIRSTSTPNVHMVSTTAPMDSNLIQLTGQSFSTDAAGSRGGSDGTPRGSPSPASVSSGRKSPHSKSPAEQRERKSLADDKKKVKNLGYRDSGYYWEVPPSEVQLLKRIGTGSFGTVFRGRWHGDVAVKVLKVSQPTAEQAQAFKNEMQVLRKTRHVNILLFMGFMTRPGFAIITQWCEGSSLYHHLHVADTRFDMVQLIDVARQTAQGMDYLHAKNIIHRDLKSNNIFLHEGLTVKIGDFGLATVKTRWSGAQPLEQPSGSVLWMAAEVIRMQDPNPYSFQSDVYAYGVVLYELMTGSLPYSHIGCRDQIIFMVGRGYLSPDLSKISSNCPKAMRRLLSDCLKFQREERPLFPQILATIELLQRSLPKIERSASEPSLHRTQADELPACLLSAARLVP

SMILES strings stand for the structures. Active and inactive are the calls of the source. For most assays here, no stated cut-off is given here; in the data, actives have a measured Kd and inactives only a lower limit.

The term Kd denotes a measure of binding affinity in units of concentration.

Chain of Deoxycytidine kinase (P27707 whole entry): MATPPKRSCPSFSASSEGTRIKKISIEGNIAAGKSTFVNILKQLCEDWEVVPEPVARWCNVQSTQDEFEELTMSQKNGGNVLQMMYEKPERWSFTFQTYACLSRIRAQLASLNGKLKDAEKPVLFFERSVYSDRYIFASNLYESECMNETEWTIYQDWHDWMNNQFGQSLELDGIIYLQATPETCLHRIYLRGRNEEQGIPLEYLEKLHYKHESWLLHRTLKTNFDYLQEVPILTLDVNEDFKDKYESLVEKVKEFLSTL
Chain of Casein kinase I isoform gamma-1 (Q9HCP0 whole entry, canonical isoform): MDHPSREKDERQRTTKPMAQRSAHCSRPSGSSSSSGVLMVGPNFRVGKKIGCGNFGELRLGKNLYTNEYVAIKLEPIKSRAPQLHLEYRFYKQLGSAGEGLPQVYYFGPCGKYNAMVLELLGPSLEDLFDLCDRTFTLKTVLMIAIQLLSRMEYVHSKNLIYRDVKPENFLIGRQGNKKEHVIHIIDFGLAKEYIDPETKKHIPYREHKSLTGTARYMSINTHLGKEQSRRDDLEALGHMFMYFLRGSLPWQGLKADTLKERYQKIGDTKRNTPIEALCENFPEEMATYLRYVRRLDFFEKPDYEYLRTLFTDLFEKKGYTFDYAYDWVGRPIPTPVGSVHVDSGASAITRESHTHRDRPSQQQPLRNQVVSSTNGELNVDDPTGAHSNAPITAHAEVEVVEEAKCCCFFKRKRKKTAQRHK
Chain of Cyclin-dependent kinase 1 (P06493 whole entry): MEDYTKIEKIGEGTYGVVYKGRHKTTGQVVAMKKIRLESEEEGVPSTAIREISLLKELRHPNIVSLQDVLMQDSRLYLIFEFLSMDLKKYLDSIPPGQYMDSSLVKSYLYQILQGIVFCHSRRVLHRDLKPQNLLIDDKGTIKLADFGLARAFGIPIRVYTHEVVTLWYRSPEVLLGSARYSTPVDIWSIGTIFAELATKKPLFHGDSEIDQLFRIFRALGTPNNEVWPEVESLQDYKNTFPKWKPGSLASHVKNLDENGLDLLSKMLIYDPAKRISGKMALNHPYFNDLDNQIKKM

Turning to `COc1cc2ncnc(Nc3ccc(F)c(Cl)c3)c2cc1NC(=O)/C=C/CN1CCCCC1` [DACOMITINIB ANHYDROUS], the Kd (in assay [1]; at Deoxycytidine kinase; in assay [2]; in assay [3]; in assay [4]; in assay [5]) was > 30 µM (inactive) in each case. Also, the Kd in assay [6] and in assay [7] was > 30 µM (inactive) in each case.

Take `COCCN1CCN(Cc2ccc(-c3n[nH]c4c3C(=O)c3c(NC(=O)NN5CCOCC5)cccc3-4)cc2)CC1` [RGB-286638]: the Kd in assay [1] is 3.18 µM (active); at Deoxycytidine kinase it was > 30 µM (inactive); in assay [2], 1.34 µM (active); in assay [3], 2.01 µM (active); in assay [4] it was 0.127 µM; in assay [5], > 30 µM (inactive). Moreover, the Kd in assay [6] and in assay [7] was > 30 µM (inactive) throughout.

As to `O=C(NOC[C@H](O)CO)c1ccc(F)c(F)c1Nc1ccc(I)cc1F` [MIRDAMETINIB], the Kd (in assay [1]; on Deoxycytidine kinase; in assay [2]; in assay [3]; in assay [4]; in assay [5]) was > 30 µM (inactive) in each case. The Kd in assay [6] and in assay [7] was > 30 µM (inactive) in each case.

As to `CNC(=O)c1cccc(-c2ccc3c(N4CCOC[C@@H]4C)nc(N4CCOC[C@@H]4C)nc3n2)c1` [VISTUSERTIB], the Kd (in assay [1]; on Deoxycytidine kinase; in assay [2]; in assay [3]; in assay [4]; in assay [5]) was > 30 µM (inactive) each time. Moreover, the Kd in assay [6] and in assay [7] was > 30 µM (inactive) each time.

In the case of `COc1cc2nccc(Oc3ccc(NC(=O)C4(C(=O)Nc5ccc(F)cc5)CC4)cc3)c2cc1OC` [CABOZANTINIB], the Kd (in assay [1]; on Deoxycytidine kinase; in assay [2]; in assay [3]; in assay [4]; in assay [5]) was > 30 µM (inactive) each time. The Kd in assay [6] and in assay [7] was > 30 µM (inactive) in each case.

On to `Cc1cc(Nc2nc(N[C@@H](C)c3ncc(F)cn3)ncc2Cl)n[nH]1` [AZD-1480], for which the Kd (in assay [1]; on Deoxycytidine kinase; in assay [2]; in assay [3]; in assay [4]; in assay [5]) was > 30 µM (inactive) throughout. Moreover, the Kd in assay [6] and in assay [7] was > 30 µM (inactive) throughout.

As for `CCN1CCN(Cc2ccc(Nc3ncc(F)c(-c4cc(F)c5nc(C)n(C(C)C)c5c4)n3)nc2)CC1` [ABEMACICLIB], the Kd in assay [1] is > 30 µM (inactive); on Deoxycytidine kinase it was > 30 µM (inactive); in assay [3], > 30 µM (inactive); in assay [4] it was 1.32 µM (active); in assay [5], > 30 µM (inactive); in assay [6] it was > 30 µM (inactive). Moreover, in assay [7], the Kd is > 30 µM (inactive).

For the compound `NC[C@@](O)(c1ccc(Cl)cc1)c1ccc(-c2cn[nH]c2)cc1` [AT-13148], the Kd (in assay [1]; on Deoxycytidine kinase; in assay [2]; in assay [3]; in assay [4]; in assay [5]) was > 30 µM (inactive) in each case. In addition, the Kd in assay [6] was > 30 µM (inactive).

As to `O=C(O)c1ccc2c(c1)nc(Nc1cccc(Cl)c1)c1ccncc12` [SILMITASERTIB], the Kd (in assay [1]; at Deoxycytidine kinase; in assay [3]; in assay [4]; in assay [5]; in assay [6]) was > 30 µM (inactive) each time. For the same compound, the Kd in assay [7] is > 30 µM (inactive).
